Like-named read-outs stand apart in the source and are kept apart here.
System: human basophils
Assay: Histamine release from human basophils (HHB)
Assay type: cell-based
Details: anti-IgE stimulus
Experimental: HISTAMINE RELEASE FROM HUMAN BASOPHILS
The blood samples are placed briefly on a rotary mixer. All glassware contacting the blood is siliconized. The blood is aliquoted into three plastic 50 ml centrifuge tubes and the volume is noted. Hespan (hydroxy ethyl starch), 0.5 ml per 1.0 ml of blood, is added. The tubes are inverted several times to mix and are left undisturbed at room temperature until a sharp separation is observed between the settled red cells and the leukocyte and platelet-rich plasma. This usually occurs within 35-45 minutes.
The plasma fraction is pipetted off and placed into two clean plastic 50 ml centrifuge tubes. […] The platelets remain in the plasma and are discarded. The pelleted leukocytes are shaken gently to disrupt the cell button and washed twice as described:
Wash 1. Five ml of HA buffer with 0.005M EDTA is added to the dispersed cells in each tube and gently vortexed. 25 ml of buffer is then added and gently vortexed. The samples are again centrifuged as described earlier. The supernatant is poured off, and the cell button in each tube is gently dispersed.
Wash 2. Five ml of HA buffer with EDTA is added to each tube to resuspend the cells. Leukocytes are then pooled into one tube and the volume is brought up to 40 ml with HA buffer with EDTA and gently vortexed. […] The supernatant fluid is discarded and the cell button is dispersed. Sixteen ml of HACM buffer is added to the washed cells and gently vortexed. A sample is prepared for Hematology, where a total white blood cell and platelet count is done using a Coulter Counter.
Aliquots (0.1 ml) of cells are added to assay tubes containing 0.4 ml of either 6% perchloric acid (for total histamine content), vehicle control (for spontaneous release), or drug. The tubes are incubated at room temperature for 8 minutes, and then placed in a 37° water bath for two more minutes. Buffer or challenge agents (at 37°) are added to the tube and they are incubated for an additional 45 minutes at 37°. The tubes are then spun at 2000 RPM (1200 g) for three minutes to pellet the cells and the supernatants are poured into assay cups.
If the compound is in solution, distilled water is used to bring it up to 100 ml total volume. If the drug is not in solution, 0.2 ml 1N NaOH (or HCl) is added, and then distilled water is added to yield 100 ml total solution. Five ml of the stock solution is diluted (1:2) with 5 ml of two times concentrated HACM (Hepes Albumin Calcium Magnesium) buffer to yield the stock working concentration of 150 μM. […] Further dilutions are made with HACM buffer for 33, 10, 3.3, 1.0 μM, etc.
Short ragweed and house dust extracts (Greer Laboratories, Inc.) are supplied as aqueous extracts in stock concentrations of 40,000 and 10,000 protein nitrogen units per milliliter (PNU/ml), respectively. Aqueous solutions of anti-IgE antisera (rabbit-raised antibody) are purchased from Dako via Accurate Chemicals. The tripeptide f-met-leu-phe (fmlp) from Vega Biochemicals is used. The aqueous solutions of ragweed, house dust, and anti-IgE are diluted 1:2 with two times concentrated HACM and then further diluted with HACM to yield final stock concentrations of […] for ragweed and house dust, and a 1:50 dilution for the anti-IgE antisera. […] The pH is adjusted to 7.4. Further dilutions for working solutions are made in HACM buffer. All stock and working solutions are stored at 4°. Working solutions comprise 1/6 of the final volume in the cell reaction, therefore, working solutions of challenge agents are made up six times the required final concentration (i.e., 600 μM f-met-leu-phe yields 100 μM final concentration in the cellular reaction).
Samples are run in triplicate, using either 1.5 ml polypropylene-capped reaction tubes, or 5.0 ml plastic uncapped tubes.

[1] = tested at 33 μM, read-out: % Inhibition of Histamine Release with Anti-IgE Stimulus

Row | SMILES | inhibition at 33 µM [1] | inhibition at 33 µM (at highest dose tested, column head: tested at 33 μM, read-out: % Inhibition of Histamine Release with Anti-IgE Stimulus (at highest dose tested))
1 | COc1ccc2ccc(C(=O)Nc3nn[nH]n3)c(OC)c2c1 [Example 24, 1,7-Dimethoxy-N-1H-tetrazol-5-yl-2-napthalenecarboxamide] | 57% | –
2 | COc1ccc2ccc(C(=O)Nc3nnn[nH]3)c(OC(C)C)c2c1 [Example 26, 7-Methoxy-1-(1-methylethoxy)-N-1H-tetrazol-5-yl-2-naphthalenecarboxamide] | 91% | –
3 | COc1cccc2c(OC(C)C)c(C(=O)Nc3nnn[nH]3)ccc12 [Example 25, 5-Methoxy-1-(1-methylethoxy)-N-1H-tetrazol-5-yl-2-naphthalenecarboxamide] | 11% | –
4 | CC(C)Oc1c(C(=O)Nc2nnn[nH]2)ccc2ccccc12 [Example 23, 1-(1-Methylethoxy)-N-1H-tetrazol-5-yl-2-naphthalenecarboxamide] | 16% | –
5 | CC(C)Oc1ccc2ccc(C(=O)Nc3nnn[nH]3)c(OC(C)C)c2c1 [Example 27, 1,7-bis(1-Methylethoxy)-N-1H-tetrazol-5-yl-2-naphthalenecarboxamide] | – | 0%
6 | COc1ccc2c(OC(C)C)c(C(=O)Nc3nnn[nH]3)ccc2c1 [Example 22, 6-Methoxy-1-(1-methylethoxy)-N-1H-tetrazol-5-yl-2-naphthalenecarboxamide] | 71% | –
